{"source": "patent US10537575B2", "about": "“Phosphodiesterase inhibitors to repair brain and/or retinal injury in human newborns” (priority 2016, dated 2020)", "key": {"[1]": {"tested_on": "Long-Evans rat pups (term neonatal HIE model)", "assay": "Retinal histology, thicknesses of retinal layers at P30", "type": "in vivo", "parameters": "Effect size, RPE thickness / Effect size, OS thickness / Effect size, IS thickness / Effect size, ONL thickness / Effect size, OPL thickness / Effect size, INL thickness / Effect size, IPL thickness / Effect size, total thickness: scale not given here", "conditions": "for Effect size, INL thickness / Effect size, IPL thickness / Effect size, IS thickness / Effect size, ONL thickness / Effect size, OPL thickness / Effect size, OS thickness / Effect size, RGC/FL thickness / Effect size, RPE thickness / Effect size, total thickness: compared to HI vehicle rat pups; for INL thickness / IPL thickness / IS thickness / ONL thickness / OPL thickness / OS thickness (outer segment) / RGC/FL thickness / RPE thickness / Total thickness: left eye, P30", "description": "A well-established rat model of term neonatal HIE (Vannucci model) (Patel S D et al., 2014, Patel S D et al., 2015; […] et al., 2009; […] et al., 2009; Rice J E, 3rd et al., 1981) and produces concomitant retinal injury (Jung S et al., 2015). Rats undergoing both the ligation and hypoxia were considered the HI group. Sham operated rats (identical procedure as the HI group, but without ligation and hypoxia) served as the control group. […] Different doses of sildenafil-i.e., low (2 mg/kg), medium (10 mg/kg), and high (50 mg/kg)-were used in the HI and sham rat pups (n=4-7 animals/group). At P30, the animals were sacrificed, and the eyes were enucleated. Retinal histology was performed as per a previously described protocol (Jung S et al., 2015). […] Then, the retinal layer thickness was plotted against eccentricity to obtain the spider graphs (FIG. 7B)."}, "[2]": {"tested_on": "Long-Evans rat pups (term neonatal HIE model)", "assay": "Microvessel density (collagen IV staining) at P30", "type": "in vivo", "conditions": "HI, sildenafil 50 mg/kg, p<0.01", "description": "In addition, using the fourth slide prepared for each animal, an immunohistochemistry with collagen IV staining also was used to assess microvessel density. Sections were labeled with an anti-collagen type IV antibody (EMD Millipore: AB769, Temecula, Calif., USA) (dilution 1:400, incubation time overnight at room temperature) (Tong X K et al., 2005). Then, these sections were incubated with the secondary antibody CyTM3-conjugated AffiniPure donkey anti-goat IgG (Cedarlane: 705-165-147, West Grove, Pa., USA) (dilution 1:400, incubation time 1 hour at room temperature). These sections were rinsed with tris-buffered saline and cover slipped with Vectashield Mounting media containing 4,6-diamidino-2-phenylindole (DAPI) (Vector Laboratories: H1200, Burlingame, Calif., USA) to visualize cell nuclei. To estimate microvessel density, single-layer immunoreactive blood vessels in all orientations were counted as individual microvessels. Collagen IV staining in large vessels with tunica media were disregarded in the microvessel counts (Hallene K L et al., 2006, Iwai M et al., 2007; Noguchi T et al., 2008; Rigau V et al., 2007; Wintermark P et al., 2013; Shaikh H et al., 2015). […] One investigator took pictures of the respective fields of view at 10× magnification."}, "[3]": {"conditions": "oral sildenafil; known; cited from earlier work"}}, "data": [{"smiles": "CCCc1nn(C)c2c(=O)[nH]c(-c3cc(S(=O)(=O)N4CCN(C)CC4)ccc3OCC)nc12", "note": "[sildenafil]", "values": [{"measurement": "thicknesses of affected retinal layers, response", "setting": "[1]; HI, 10 mg/kg and 50 mg/kg doses", "value": "significantly improved response in terms of thicknesses of all the affected layers"}, {"measurement": "Effect size, INL thickness", "setting": "[1]; HI, Sild 2 mg/kg", "value": 4.94}, {"measurement": "Effect size, IPL thickness", "setting": "[1]; HI, Sild 2 mg/kg", "value": 0.11}, {"measurement": "Effect size, IS thickness", "setting": "[1]; HI, Sild 2 mg/kg", "value": 2.16}, {"measurement": "Effect size, ONL thickness", "setting": "[1]; HI, Sild 2 mg/kg", "value": 0.71}, {"measurement": "Effect size, OPL thickness", "setting": "[1]; HI, Sild 2 mg/kg", "value": 4.91}, {"measurement": "Effect size, OS thickness", "setting": "[1]; HI, Sild 2 mg/kg", "value": 0.40}, {"measurement": "Effect size, RGC/FL thickness", "setting": "[1]; HI, Sild 2 mg/kg", "value": 1.37}, {"measurement": "Effect size, RPE thickness", "setting": "[1]; HI, Sild 2 mg/kg", "value": 0.25}, {"measurement": "Effect size, total thickness", "setting": "[1]; HI, Sild 2 mg/kg", "value": 14.72}, {"measurement": "Effect size, INL thickness", "setting": "[1]; HI, Sild 10 mg/kg", "value": 19.74}, {"measurement": "Effect size, IPL thickness", "setting": "[1]; HI, Sild 10 mg/kg", "value": 42.08}, {"measurement": "Effect size, IS thickness", "setting": "[1]; HI, Sild 10 mg/kg", "value": "−7.24"}, {"measurement": "Effect size, ONL thickness", "setting": "[1]; HI, Sild 10 mg/kg", "value": "−19.22"}, {"measurement": "Effect size, OPL thickness", "setting": "[1]; HI, Sild 10 mg/kg", "value": 8.67}, {"measurement": "Effect size, OS thickness", "setting": "[1]; HI, Sild 10 mg/kg", "value": "−8.55"}, {"measurement": "Effect size, RGC/FL thickness", "setting": "[1]; HI, Sild 10 mg/kg", "value": 18.37}, {"measurement": "Effect size, RPE thickness", "setting": "[1]; HI, Sild 10 mg/kg", "value": "−0.73"}, {"measurement": "Effect size, total thickness", "setting": "[1]; HI, Sild 10 mg/kg", "value": 53.09}, {"measurement": "Effect size, INL thickness", "setting": "[1]; HI, Sild 50 mg/kg", "value": 21.65}, {"measurement": "Effect size, IPL thickness", "setting": "[1]; HI, Sild 50 mg/kg", "value": 41.40}, {"measurement": "Effect size, IS thickness", "setting": "[1]; HI, Sild 50 mg/kg", "value": "−7.50"}, {"measurement": "Effect size, ONL thickness", "setting": "[1]; HI, Sild 50 mg/kg", "value": "−17.36"}, {"measurement": "Effect size, OPL thickness", "setting": "[1]; HI, Sild 50 mg/kg", "value": 8.95}, {"measurement": "Effect size, OS thickness", "setting": "[1]; HI, Sild 50 mg/kg", "value": "−9.86"}, {"measurement": "Effect size, RGC/FL thickness", "setting": "[1]; HI, Sild 50 mg/kg", "value": 16.59}, {"measurement": "Effect size, RPE thickness", "setting": "[1]; HI, Sild 50 mg/kg", "value": "−0.59"}, {"measurement": "Effect size, total thickness", "setting": "[1]; HI, Sild 50 mg/kg", "value": 53.25}, {"measurement": "topographic retinal thickness (spider graph)", "setting": "[1]; HI, low-dose of sildenafil", "value": "did not seem to reverse any of the HI-induced changes in retinal thickness, except in the inferior retina"}, {"measurement": "topographic retinal thickness (spider graph)", "setting": "[1]; HI, medium and high doses of sildenafil", "value": "nearly normal inner retina at almost all retinal eccentricities"}, {"measurement": "INL thickness", "setting": "[1]; HI, Sild 2 mg/kg", "value": "14.71 ± 2.57", "unit": "μm"}, {"measurement": "IPL thickness", "setting": "[1]; HI, Sild 2 mg/kg", "value": "2.95 ± 2.60", "unit": "μm"}, {"measurement": "IS thickness", "setting": "[1]; HI, Sild 2 mg/kg", "value": "23.83 ± 3.12", "unit": "μm"}, {"measurement": "ONL thickness", "setting": "[1]; HI, Sild 2 mg/kg", "value": "70.88 ± 2.88", "unit": "μm"}, {"measurement": "OPL thickness", "setting": "[1]; HI, Sild 2 mg/kg", "value": "5.72 ± 3.05", "unit": "μm"}, {"measurement": "OS thickness (outer segment)", "setting": "[1]; HI, Sild 2 mg/kg", "value": "38.14 ± 3.66", "unit": "μm"}, {"measurement": "RGC/FL thickness", "setting": "[1]; HI, Sild 2 mg/kg", "value": "2.28 ± 2.28", "unit": "μm"}, {"measurement": "RPE thickness", "setting": "[1]; HI, Sild 2 mg/kg", "value": "8.88 ± 0.24", "unit": "μm"}, {"measurement": "Total thickness", "setting": "[1]; HI, Sild 2 mg/kg", "value": "167.28 ± 2.63", "unit": "μm"}, {"measurement": "INL thickness", "setting": "[1]; HI, Sild 10 mg/kg", "value": "29.50 ± 1.70", "unit": "μm"}, {"measurement": "IPL thickness", "setting": "[1]; HI, Sild 10 mg/kg", "value": "44.93 ± 7.35", "unit": "μm"}, {"measurement": "IS thickness", "setting": "[1]; HI, Sild 10 mg/kg", "value": "14.43 ± 1.15", "unit": "μm"}, {"measurement": "ONL thickness", "setting": "[1]; HI, Sild 10 mg/kg", "value": "50.95 ± 0.76", "unit": "μm"}, {"measurement": "OPL thickness", "setting": "[1]; HI, Sild 10 mg/kg", "value": "9.48 ± 0.38", "unit": "μm"}, {"measurement": "OS thickness (outer segment)", "setting": "[1]; HI, Sild 10 mg/kg", "value": "29.18 ± 2.14", "unit": "μm"}, {"measurement": "RGC/FL thickness", "setting": "[1]; HI, Sild 10 mg/kg", "value": "19.28 ± 3.36", "unit": "μm"}, {"measurement": "RPE thickness", "setting": "[1]; HI, Sild 10 mg/kg", "value": "7.89 ± 0.35", "unit": "μm"}, {"measurement": "Total thickness", "setting": "[1]; HI, Sild 10 mg/kg", "value": "205.64 ± 14.20", "unit": "μm"}, {"measurement": "INL thickness", "setting": "[1]; HI, Sild 50 mg/kg", "value": "31.42 ± 1.66", "unit": "μm"}, {"measurement": "IPL thickness", "setting": "[1]; HI, Sild 50 mg/kg", "value": "44.25 ± 11.86", "unit": "μm"}, {"measurement": "IS thickness", "setting": "[1]; HI, Sild 50 mg/kg", "value": "14.16 ± 0.25", "unit": "μm"}, {"measurement": "ONL thickness", "setting": "[1]; HI, Sild 50 mg/kg", "value": "52.81 ± 1.06", "unit": "μm"}, {"measurement": "OPL thickness", "setting": "[1]; HI, Sild 50 mg/kg", "value": "9.76 ± 0.84", "unit": "μm"}, {"measurement": "OS thickness (outer segment)", "setting": "[1]; HI, Sild 50 mg/kg", "value": "27.87 ± 2.09", "unit": "μm"}, {"measurement": "RGC/FL thickness", "setting": "[1]; HI, Sild 50 mg/kg", "value": "17.50 ± 4.07", "unit": "μm"}, {"measurement": "RPE thickness", "setting": "[1]; HI, Sild 50 mg/kg", "value": "8.03 ± 0.27", "unit": "μm"}, {"measurement": "Total thickness", "setting": "[1]; HI, Sild 50 mg/kg", "value": "205.80 ± 14.22", "unit": "μm"}, {"measurement": "photoreceptor degeneration", "setting": "[1]; present example (rat pups)", "value": "did not induce photoreceptor degeneration"}, {"measurement": "microvessel density near the infarct boundary zone, median (IQR)", "setting": "[2]", "value": "211 (182; 221)"}, {"measurement": "oral bioavailability", "setting": "[3]", "value": "good oral bioavailability"}]}]}
